Results published in patent publication US20110028447A1, “INDAZOLE DERIVATIVES” (Pfizer Inc., priority 2008, published 2011).
Read-outs that look alike come from different tables or passages of the source.

Legend:
human CB1 receptor [1] = target: T1, human CB1 receptor (Homo sapiens, UniProt P21554); assay: Human CB1 receptor binding, [3H] CP-55,940 displacement on HEK cell membranes; parameters: expressed in transfected cells; host or cells: HEK cells, doxycycline-induced; membrane preparation
Summary of the method: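 Radioligand displacement: [3H] CP-55,940 at […] final, 1 μg membrane protein per well from HEK cells with tetracycline-inducible human CB1, 60 min at room temperature, pH 7.4 Tris/NaCl/MgCl2/EGTA/BSA buffer. 50 μM WIN-55,212-2 set nonspecific binding; bound label filtered, counted, and fitted for EC50 and Ki values.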

human CB1 receptor [2] = target: T1, human CB1 receptor; assay: [35S] GTPγS binding on membranes of CHO cells expressing the human CB1 receptor (agonism); assay type: biochemical; parameters: expressed in transfected cells; membrane preparation
Summary of the method: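 Membranes from human CB1-expressing CHO cells (5 μg/well) incubated with test compound and [35S]GTPγS in 50 mM Tris pH 7.4, 100 mM NaCl, 3 mM MgCl2, 0.2 mM EGTA, 0.04% BSA for 45 min at 37 °C. Bound label collected by filtration, scintillation counted; EC50 from curve fits.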

[3] = GTPγS EC50, human CB1, CHO cell membranes
[4] = human CB1, CHO cell membranes, read-out: GTPγS EC50

T1 sequence (P21554 whole entry): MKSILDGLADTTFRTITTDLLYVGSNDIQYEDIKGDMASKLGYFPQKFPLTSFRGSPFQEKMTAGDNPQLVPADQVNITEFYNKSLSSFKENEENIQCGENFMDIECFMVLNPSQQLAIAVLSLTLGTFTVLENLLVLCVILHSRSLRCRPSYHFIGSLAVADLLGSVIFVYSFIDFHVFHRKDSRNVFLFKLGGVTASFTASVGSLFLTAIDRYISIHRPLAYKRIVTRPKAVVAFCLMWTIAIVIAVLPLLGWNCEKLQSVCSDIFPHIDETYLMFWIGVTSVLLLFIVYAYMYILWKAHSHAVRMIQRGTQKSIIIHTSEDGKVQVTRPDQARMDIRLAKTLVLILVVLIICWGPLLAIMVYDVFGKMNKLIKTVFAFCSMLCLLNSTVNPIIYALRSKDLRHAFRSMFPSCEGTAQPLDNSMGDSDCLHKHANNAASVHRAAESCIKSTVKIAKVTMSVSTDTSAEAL

Row | SMILES | Ki (human CB1 receptor [1]; CB1 Ki) [nM] | EC50 (human CB1 receptor [2]; [3]) [nM] | Ki (human CB1 receptor [1]; read-out: CB1 Ki) [nM] | EC50 (human CB1 receptor [2]; [4]) [nM]
1 | CC(C)(C)[C@H](NC(=O)c1nn(Cc2ccc(F)cc2)c2ccccc12)C(=O)N[C@H]1C[C@@H](C(N)=O)C1 [Example 398] | 5.8 | 26.6 |  | 
2 | CC(C)(C)[C@H](NC(=O)c1nn(Cc2ccc(F)cc2)c2ccccc12)C(=O)NCCS(=O)(=O)NCC1CC1 [Example 400] |  |  | 12.3 | 28.1
3 | CC(C)(C)[C@H](NC(=O)c1nn(Cc2ccc(F)cc2)c2ccccc12)C(=O)NCC1CCC(=O)N1 (stereo partly shown) [Example 404] | 13.1 | 38.2 |  | 
4 | CN1CC(CNC(=O)[C@@H](NC(=O)c2nn(Cc3ccc(F)cc3)c3ccccc23)C(C)(C)C)CC1=O (stereo partly shown) [Example 411] |  |  | 3.73 | 21.3
5 | CC(C)(C)[C@H](NC(=O)c1nn(Cc2ccc(F)cc2)c2ccccc12)C(=O)NCc1n[nH]c(C2CC2)n1 [Example 413] |  |  | 14 | 52
6 | CC(C)(C)[C@H](NC(=O)c1nn(Cc2ccc(F)cc2)c2ccccc12)C(=O)NCc1n[nH]c(-c2ccccc2)n1 [Example 414] |  |  | 7.61 | 38.6
7 | CC(C)(C)[C@H](NC(=O)c1nn(Cc2ccc(F)cc2)c2ccccc12)C(=O)NCc1nc2n(n1)CCC2 [Example 415] |  |  | 8.69 | 10.8
8 | Cn1nc(CNC(=O)[C@@H](NC(=O)c2nn(Cc3ccc(F)cc3)c3ccccc23)C(C)(C)C)cc1C1CCC1 [Example 416] |  |  | 9.26 | 47.1
9 | CC(C)(C)[C@H](NC(=O)c1nn(Cc2ccc(F)cc2)c2ccccc12)C(=O)NCc1cnn2cccnc12 [Example 417] |  |  | 7.84 | 25.7
10 | CC(C)(C)[C@H](NC(=O)c1nn(Cc2ccc(F)cc2)c2ccccc12)C(=O)NCc1nc(-c2cnccn2)no1 [Example 418] |  |  | 0.78 | 4.07
11 | CC(C)(C)[C@H](NC(=O)c1nn(Cc2ccc(F)cc2)c2ccccc12)C(=O)NCc1cc(C2CCC2)[nH]n1 [Example 420] |  |  | 11.2 | 43.7
12 | Cc1nc(CNC(=O)[C@@H](NC(=O)c2nn(Cc3ccc(F)cc3)c3ccccc23)C(C)(C)C)nn1C [Example 421] |  |  | 2.88 | 17.2
13 | CC(C)(C)[C@H](NC(=O)c1nn(Cc2ccc(F)cc2)c2ccccc12)C(=O)NCc1cc(C2CC2)[nH]n1 [Example 422] |  |  | 4.67 | 19.6
14 | Cn1cc(CNC(=O)[C@@H](NC(=O)c2nn(Cc3ccc(F)cc3)c3ccccc23)C(C)(C)C)cn1 [Example 423] | 5.19 | 30.8 |  | 
15 | CC(C)(C)[C@H](NC(=O)c1nn(Cc2ccc(F)cc2)c2ccccc12)C(=O)NCc1nc(-c2ccccn2)no1 [Example 424] |  |  | 1.28 | 10.2
16 | Cc1cc(CNC(=O)[C@@H](NC(=O)c2nn(Cc3ccc(F)cc3)c3ccccc23)C(C)(C)C)no1 [Example 425] | 0.92 | 3.36 |  | 
17 | CC(C)(C)[C@H](NC(=O)c1nn(Cc2ccc(F)cc2)c2ccccc12)C(=O)NCc1cnn(-c2ccccc2)n1 [Example 427] |  |  | 15 | 50.5
18 | CC(C)(C)[C@H](NC(=O)c1nn(Cc2ccc(F)cc2)c2ccc(Cl)cc12)C(=O)NCCS(N)(=O)=O [Example 432] | 15.7 | 101 |  | 
19 | CC(C)(C)[C@H](NC(=O)c1nn(Cc2ccc(F)cc2)c2ccc(Cl)cc12)C(=O)NC1CCC1 [Example 438] | 10.9 | 20 |  | 
20 | CC(C)(C)[C@H](NC(=O)c1nn(Cc2ccc(C#N)cc2)c2c(F)cccc12)C(=O)N[C@@H]1CNC(=O)C1 [Example 457] | 1.77 | 108 |  | 
21 | CC(C)(C)[C@H](NC(=O)c1nn(Cc2ccc(F)cc2)c2ccccc12)C(=O)N[C@@H]1CNC(=O)C1 [Example 459] | 2.78 | 17.7 |  | 
22 | CC(C)(C)[C@H](NC(=O)c1nn(Cc2ccc(F)cc2)c2ccccc12)C(=O)NCc1nnc(C(=O)NCCO)o1 [Example 462] |  |  | 2.29 | 13
23 | CC(C)(C)[C@H](NC(=O)c1nn(Cc2ccc(F)cc2)c2ccccc12)C(=O)NCCC(N)=O [Example 470] | 11.2 | 33.7 |  | 
24 | CC(C)(C)[C@H](NC(=O)c1nn(Cc2ccc(F)cc2F)c2ccccc12)C(=O)NCCC(N)=O [Example 472] | 19.6 | 52.7 |  | 

Row | SMILES | Ki (human CB1 receptor [1]; CB1 Ki) [nM] | EC50 (human CB1 receptor [2]; [3]) [nM] | Ki (human CB1 receptor [1]; read-out: CB1 Ki) [nM] | EC50 (human CB1 receptor [2]; [4]) [nM]
25 | CC(C)(C)[C@H](NC(=O)c1nn(Cc2ccc(F)c(F)c2)c2ccccc12)C(=O)NCCC(N)=O [Example 473] | 17 | 41.8 |  | 
26 | CC(C)(C)[C@H](NC(=O)c1nn(Cc2ccc(F)cc2)c2c(F)cccc12)C(=O)NCCC(N)=O [Example 476] | 6.48 | 31.4 |  | 
27 | CC(C)(C)[C@H](NC(=O)c1nn(Cc2ccc(F)cc2)c2ccccc12)C(=O)NCCOc1ccccn1 [Example 478] |  |  | 21.3 | 23.7
28 | CC(C)(C)[C@H](NC(=O)c1nn(Cc2ccc(F)cc2)c2ccccc12)C(=O)NCCOc1ccnc(N)n1 [Example 479] |  |  | 13.4 | 131
29 | CC(C)(C)[C@H](NC(=O)c1nn(Cc2ccc(F)cc2)c2ccccc12)C(=O)NCCNc1ccccn1 [Example 480] |  |  | 15.3 | 42.6
30 | CC(C)(C)[C@H](NC(=O)c1nn(Cc2ccc(F)cc2)c2ccccc12)C(=O)NCCc1cnccn1 [Example 482] |  |  | 12.1 | 22.2
31 | CC(C)(C)[C@H](NC(=O)c1nn(Cc2ccc(F)cc2)c2ccccc12)C(=O)NC[C@H]1C[C@@H]1CO [Example 488] | 5.61 | 21.4 |  | 
32 | CC(C)(C)[C@H](NC(=O)c1nn(Cc2ccc(C#N)cc2)c2c(F)cccc12)C(=O)NC[C@H]1C[C@H]1CO [Example 490] | 12.4 | 63.1 |  | 
33 | CC(C)(C)[C@H](NC(=O)c1nn(Cc2ccc(F)cc2)c2ccccc12)C(=O)NC[C@H]1C[C@H]1CO [Example 492] | 1.32 | 9.71 |  | 
34 | CC(C)NC(=O)CNC(=O)[C@@H](NC(=O)c1nn(Cc2ccc(F)cc2)c2ccccc12)C(C)(C)C [Example 493] | 0.95 | 9.94 |  | 
35 | CC(C)(C)[C@H](NC(=O)c1nn(Cc2ccc(F)cc2)c2ccccc12)C(=O)NCC(=O)NC1CC1 [Example 494] | 0.34 | 1.17 |  | 
36 | CC(C)(C)[C@H](NC(=O)c1nn(Cc2ccc(F)cc2)c2c(F)cc(Cl)cc12)C(=O)NC[C@H](O)CO [Example 496] | 16.5 | 30.2 |  | 
37 | CC(C)(C)[C@H](NC(=O)c1nn(Cc2ccc(F)cc2)c2c(F)cc(Cl)cc12)C(=O)NCCS(N)(=O)=O [Example 497] | 16.7 | 59.5 |  | 
38 | CC(C)(C)[C@H](NC(=O)c1nn(Cc2ccc(F)cc2)c2c(F)cc(Cl)cc12)C(=O)NCC(N)=O [Example 498] | 16.4 | 38.3 |  | 
39 | CC(C)(C)[C@H](NC(=O)c1nn(Cc2ccc(F)cc2)c2ccccc12)C(=O)NCCN1CCCC1=O [Example 499] |  |  | 18.3 | 204
40 | CC(C)(C)[C@H](NC(=O)c1nn(Cc2ccc(F)cc2)c2ccccc12)C(=O)NCCN1Cc2ncccc2C1=O [Example 500] |  |  | 10.1 | 47.4
41 | CC(C)(C)[C@H](NC(=O)c1nn(Cc2ccc(F)cc2)c2ccccc12)C(=O)NCCc1nc2ccccc2c(=O)[nH]1 [Example 501] |  |  | 24.2 | 16.8
42 | CC(C)(C)[C@H](NC(=O)c1nn(Cc2ccc(F)cc2)c2ccccc12)C(=O)NCCn1ccccc1=O [Example 502] |  |  | 17.3 | 36.9
43 | CC(C)(C)[C@H](NC(=O)c1nn(Cc2ccc(F)cc2)c2ccccc12)C(=O)NC[C@H](O)CN1CCOCC1 [Example 504] |  |  | 21.3 | 132
44 | CC(C)(C)[C@H](NC(=O)c1nn(Cc2ccc(F)cc2)c2ccccc12)C(=O)NCCc1n[nH]c(=O)[nH]1 [Example 506] |  |  | 1.3 | 8.97
45 | Cc1cc2c(C(=O)N[C@H](C(=O)NCc3nnc(C(N)=O)o3)C(C)(C)C)nn(Cc3ccc(F)cc3)c2cc1F [Example 508] |  |  | 2.71 | 16.2
46 | Cc1cc2c(C(=O)N[C@H](C(N)=O)C(C)(C)C)nn(Cc3ccc(F)cc3)c2cc1F [Example 509] | 0.45 | 7.55 |  | 
47 | Cc1cc2c(C(=O)N[C@H](C(=O)NC[C@H](O)CO)C(C)(C)C)nn(Cc3ccc(F)cc3)c2cc1F [Example 510] | 6.87 | 24.8 |  | 
